Key:
Format in all cases: cell-based
[1] = test system: hepatocytes, HuH-7, Hep G2 and Saos-2 cells; assay: FACS analysis of ΔΨm and ROS, summary over all cell types; settings: coadministration of UDCA with the inducers, range over cell types
Protocol: A ΔΨm and ROS measurement. ΔΨm and ROS production were measured by FACScan (Becton Dickinson) analysis. Freshly isolated rat hepatocytes were cultured for 3 h as described above and then incubated with William's E medium supplemented with either 100 μM DCA, 100 μM UDCA, equal molar amounts of both, or no bile acid (control), for 6 h. Rat hepatocytes were also cultured with either 1% ethanol, 100 μM UDCA, ethanol+UDCA, or no addition (control) for 4 h. HuH-7 cells, Hep G2 cells, and human osteogenic sarcoma Saos-2 cells were incubated with TGF-β1, anti-Fas antibody or okadaic acid, respectively, for 48 h under the same conditions as outlined above. For combination studies, cells were pretreated with UDCA or hyodeoxycholic acid for 60 min prior to addition of DCA, ethanol, TGF-β1, anti-Fas antibody or okadaic acid. Aliquots of 1.0×10^6 cells were incubated for 15 min at 37° C. with 50 nM 3,3′-dihexyloxacarbocyanine iodide [DiOC6(3)], 2 μM dihydroethidium (HE), or 5 μM 2′,7′-dichlorofluorescin diacetate (H2DCFDA; Molecular Probes, Inc. Eugene, Oreg.) and analyzed by cytofluorometry (Cathcart et al., Anal. Biochem., 134, 111-116 (1983); Zamzami et al., J. Exp. Med., 181, 1661-1672 (1 995); Carter et al., J. Leukocyte Biol., 55, 253-258 (1994)).

PARP = PARP cleavage in rat hepatocytes; settings: pretreatment with UDCA; DCA, TGF-β1 or okadaic acid
Description: Determination of PARP cleavage. For the determination of PARP cleavage, total protein were separated on a 8% SDS-polyacrylamide electrophoresis gel. Blots were probed with primary polyclonal antibody to PARP (Santa Cruz Biotechnology).

Bax = Bax translocation from cytosol to mitochondria in rat hepatocytes; settings: preincubation with UDCA
Protocol: Isolation of cytosol and mitochondrial fractions and determination of cytochrome c and Bax content. Freshly isolated rat hepatocytes were cultured for 3 hours as described above and then incubated with William's medium supplemented with either 50 μM of DCA for 4 h, 1 nM TGF-β1 for 24 h and […] okadaic acid for 16 h, in the presence or absence of 100 μM UDCA, or no addition (control). Time-course experiments were also performed. Cells (1.0×10^7/ml) were harvested by centrifugation at 600×g for 5 min at 4° C. The cell pellets were washed once in ice-cold PBS and resuspended with 3 volumes of isolation buffer containing 20 mM Hepes-KOH, pH 7.5, 10 mM KCl, 1.5 mM MgCl2, 1 mM sodium EDTA, 1 mM sodium EGTA, 1 mM dithiothreitol (DTT), suplemmented with the COMPLETE protease inhibitor cocktail (Boehringer Mannheim Biochemicals, Inc., Indianapolis, Ind.) in 250 mM sucrose. After chiling on ice for 15 min, the cells were disrupted by 40 stokes of a glass homogeneizer and the homogenates were centrifuged twice at 2,500×g for 10 min at 4° C. to remove unbroken cells and nuclei. The mitochondria were pelleted by centrifugation at 12,000×g for 30 min at 4° C., resuspended in isolation buffer containing 250 mM sucrose and frozen at −80° C. […]

C[C@H](CCC(=O)O)[C@H]1CC[C@H]2[C@@H]3[C@@H](O)C[C@@H]4C[C@H](O)CC[C@]4(C)[C@H]3CC[C@]12C [UDCA, ursodeoxycholic acid]
decrease in superoxide anion production [1]: 55-93%
inhibition of increase in other ROS [1]: 39-65%
inhibition of ΔΨm disruption [1]: 21-63%
prevention of PARP cleavage (PARP): 60%
prevention of Bax translocation (Bax): 45%

From US20030044413A1, “Methods of limiting apoptosis of cells” (Regents of the University of Minnesota, priority 1998, published 2003)
